We go through 14 compounds from ChEMBL document CHEMBL4616632, “Discovery of Cyclic Boronic Acid QPX7728, an Ultrabroad-Spectrum Inhibitor of Serine and Metallo-β-lactamases” (J Med Chem, 2020).

Some results are limits rather than exact numbers.

Assay [1] deals with Klebsiella pneumoniae. The assay can be described thus: Inhibition of Klebsiella pneumoniae KP1009 CTX-M-15 assessed as minimum concentration of compound required to reduce the MIC of aztreonam to 4 ug/ml.
The subject of assay [2] is Escherichia coli. The assay can be described thus: Inhibition of Escherichia coli KP308 SHV-5 assessed as minimum concentration of compound required to reduce the MIC of aztreonam to 4 ug/ml.
Assay [3] deals with Escherichia coli. Put plainly: Inhibition of Escherichia coli EC302 TEM-10 assessed as minimum concentration of compound needed to reduce the MIC of aztreonam to 4 ug/ml.
Assay [4] deals with Beta-lactamase (Klebsiella pneumoniae) (UniProt Q93LQ9). Put plainly: Inhibition of Klebsiella pneumoniae KP1004 KPC-2 assessed as minimum concentration of compound needed to reduce the MIC of aztreonam to 4 ug/ml.
Assay [5] deals with Enterobacter cloacae. Put plainly: Inhibition of Enterobacter cloacae ECL1002 AmpC assessed as minimum concentration of compound needed to reduce the MIC of aztreonam to 4 ug/ml.
Assay [6] concerns Klebsiella pneumoniae. Put plainly: Inhibition of Klebsiella pneumoniae KP1081 NDM-1 assessed as minimum concentration of compound required to reduce the MIC of biapenem to 1 ug/ml.
For assay [7], the system named is Klebsiella pneumoniae. The assay can be described thus: Inhibition of Klebsiella pneumoniae KP1054 VIM-1 assessed as minimum concentration of compound required to reduce the MIC of biapenem to 1 ug/ml.
Assay [8] concerns Pseudomonas aeruginosa. The assay can be described thus: Inhibition of Pseudomonas aeruginosa PAM 2035 AmpC assessed as minimum concentration of compound needed to reduce the MIC of aztreonam to 4 ug/ml.
In assay [9] the test system is Klebsiella pneumoniae. The assay can be described thus: Inhibition of Klebsiella pneumoniae KP1160 IMP-26 assessed as minimum concentration of compound needed to reduce the MIC of meropenem to 1 ug/ml.
Assay [10] has as its system Escherichia coli. Put plainly: Inhibition of Escherichia coli ECM6625 SHV-5 assessed as minimum concentration of compound needed to reduce the MIC of aztreonam to 4 ug/ml.
Assay [11] has as its system Escherichia coli. The assay can be described thus: Inhibition of Escherichia coli ECM6619 TEM-10 assessed as minimum concentration of compound needed to reduce the MIC of aztreonam to 4 ug/ml.
Assay [12] deals with Acinetobacter baumannii. The assay can be described thus: Inhibition of Acinetobacter baumannii AB1053 OXA-72 assessed as minimum concentration of compound needed to reduce the MIC of meropenem to 8 ug/ml.
In assay [13] the target is Beta-lactamase OXA-23 (Acinetobacter baumannii) (UniProt Q9L4P2). The assay can be described thus: Inhibition of Acinetobacter baumannii AB1054 OXA-23 assessed as minimum concentration of compound needed to reduce the MIC of meropenem to 8 ug/ml.
Chain of Beta-lactamase OXA-23 (Acinetobacter baumannii) (Q9L4P2 whole entry): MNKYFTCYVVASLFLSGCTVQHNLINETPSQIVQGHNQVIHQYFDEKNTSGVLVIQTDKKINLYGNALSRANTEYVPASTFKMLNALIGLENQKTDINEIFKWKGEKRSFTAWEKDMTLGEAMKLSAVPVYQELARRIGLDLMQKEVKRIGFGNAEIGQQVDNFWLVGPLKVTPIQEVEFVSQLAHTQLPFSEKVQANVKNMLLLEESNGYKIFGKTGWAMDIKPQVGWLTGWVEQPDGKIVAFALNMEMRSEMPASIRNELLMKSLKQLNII

Chain of Beta-lactamase (Klebsiella pneumoniae) (Q93LQ9 as listed by the source): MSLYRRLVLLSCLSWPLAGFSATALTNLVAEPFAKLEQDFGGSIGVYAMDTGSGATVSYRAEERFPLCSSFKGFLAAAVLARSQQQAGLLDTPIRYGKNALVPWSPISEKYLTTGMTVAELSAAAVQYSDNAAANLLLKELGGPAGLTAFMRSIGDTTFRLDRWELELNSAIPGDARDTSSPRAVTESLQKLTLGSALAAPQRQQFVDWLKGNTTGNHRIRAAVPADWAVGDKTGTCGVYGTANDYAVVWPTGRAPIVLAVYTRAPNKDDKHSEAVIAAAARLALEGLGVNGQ

As to `COc1ccc2c(c1C(=O)O)OB(O)C1(CO)CC21` (configuration not stated), the MEC in assay [1] was found to be 10 µg/mL; in [2], 5 µg/mL; in assay [3] it was 5 µg/mL; in assay [4], 1.25 µg/mL; in assay [5], 2.5 µg/mL; in [6], 0.6 µg/mL. The MEC in assay [7] came out at 0.16 µg/mL; in assay [8] it was 20 µg/mL; in [9], 2.5 µg/mL; in assay [10] it was 5 µg/mL; in assay [11], 5 µg/mL; in assay [12], 2.5 µg/mL. For the same compound, the MEC in [13] is 10 µg/mL.

Regarding `C[C@@H]1Cc2cccc(C(=O)O)c2OB1O`, the MEC in assay [1] is > 20 µg/mL; in assay [2], > 20 µg/mL; in assay [3], > 20 µg/mL; in assay [4], 5 µg/mL; in assay [5], > 20 µg/mL; in [6], 10 µg/mL. Moreover, the MEC in [7] is 20 µg/mL; in assay [8], 1.25 µg/mL; in assay [9] it was > 20 µg/mL; in assay [10], > 20 µg/mL; in assay [11], > 20 µg/mL; in [12] it was > 20 µg/mL. For the same compound, the MEC in [13] was > 20 µg/mL.

`COc1ccc2c(c1C(=O)O)OB(O)C1C2C1(F)F` (configuration not stated): the MEC in assay [1] stood at 1.25 µg/mL; in assay [2], 1.25 µg/mL; in assay [3], 5 µg/mL; in assay [4], 1.25 µg/mL; in assay [5], 10 µg/mL; in [6], 2.5 µg/mL. The MEC is 10 µg/mL in [7]; 10 µg/mL in assay [8]; > 20 µg/mL in [9]; 1.25 µg/mL in assay [10]; 5 µg/mL in assay [11]; 5 µg/mL in assay [12]. Besides, the MEC in assay [13] came to 10 µg/mL.

For `COc1ccc2c(c1C(=O)O)OB(O)[C@H]1C[C@@H]21`, the MEC turned out to be 0.6 µg/mL in assay [1]; 0.3 µg/mL in assay [2]; 0.6 µg/mL in assay [3]; 0.16 µg/mL in assay [4]; 1.25 µg/mL in assay [5]; 0.6 µg/mL in [6]. Further, the MEC in [7] was 0.3 µg/mL; in [8], 2.5 µg/mL; in assay [9] it was 20 µg/mL; in [10] it was 0.3 µg/mL; in assay [11], 0.6 µg/mL; in assay [12], 0.6 µg/mL. The MEC in assay [13] turned out to be 1.25 µg/mL.

Take `COc1ccc2c(c1C(=O)O)OB(O)C(CO)C2` (configuration not stated): the MEC was > 20 µg/mL in assay [1]; > 20 µg/mL in assay [2]; > 20 µg/mL in assay [3]; 10 µg/mL in assay [4]; 20 µg/mL in assay [5]; > 20 µg/mL in assay [6]. The MEC in assay [7], in assay [8], in assay [9], in assay [10], in assay [11] and in [12] was > 20 µg/mL in each case. Moreover, in assay [13], the MEC is > 20 µg/mL.

Regarding `O=C(O)c1nccc2c1OB(O)[C@@H]1C[C@H]21`, the MEC in assay [1] came to 2.5 µg/mL; in assay [2] it was 0.6 µg/mL; in assay [3] it was 0.3 µg/mL; in [4], 0.6 µg/mL; in assay [5] it was 5 µg/mL; in [6], 2.5 µg/mL. For the same compound, the MEC was 0.3 µg/mL in [7]; 2.5 µg/mL in assay [8]; > 20 µg/mL in [9]; 0.6 µg/mL in [10]; 0.3 µg/mL in assay [11]; 0.3 µg/mL in assay [12]. The MEC in assay [13] is 1.25 µg/mL.

With `O=C(O)c1cccc2c1OB(O)[C@@H]1C[C@H]21`, the MEC in [1] was found to be 0.6 µg/mL; in assay [2], 0.3 µg/mL; in assay [3], 0.16 µg/mL; in assay [4], 0.16 µg/mL; in assay [5] it was 0.3 µg/mL; in assay [6] it was 0.6 µg/mL. Besides, the MEC was found to be 0.16 µg/mL in assay [7]; 0.6 µg/mL in assay [8]; 20 µg/mL in assay [9]; 0.3 µg/mL in assay [10]; 0.16 µg/mL in assay [11]; 5 µg/mL in [12]. Also, in [13], the MEC was 10 µg/mL.

On to `COc1ccc2c(c1C(=O)O)OB(O)C1(CC1)C2`, for which the MEC is > 20 µg/mL in [1]; > 20 µg/mL in assay [2]; > 20 µg/mL in [3]; 5 µg/mL in [4]; 10 µg/mL in [5]; 10 µg/mL in [6]. Besides, the MEC was 5 µg/mL in assay [7]; 10 µg/mL in assay [8]; > 20 µg/mL in assay [9]; > 20 µg/mL in assay [10]; > 20 µg/mL in assay [11]; > 20 µg/mL in assay [12]. Besides, the MEC in assay [13] is > 20 µg/mL.

For `O=C(O)c1nccc2c1OB(O)CC2`, the MEC came out at 2.5 µg/mL in assay [1]; 0.16 µg/mL in assay [4]; 1.25 µg/mL in assay [5]; 1.25 µg/mL in [6]; 20 µg/mL in assay [7]; 0.3 µg/mL in assay [8]. The MEC in assay [9] was > 20 µg/mL; in assay [10], 5 µg/mL; in assay [11], 0.08 µg/mL; in [12], 1.25 µg/mL; in assay [13] it was 2.5 µg/mL.

Turning to `COc1ccc2c(c1C(=O)O)OB(O)C=C2`, the MEC in assay [1] is 10 µg/mL; in [2], 20 µg/mL; in assay [3], 20 µg/mL; in assay [4], 2.5 µg/mL; in [5], 10 µg/mL; in assay [6] it was > 20 µg/mL. In addition, the MEC in assay [7] is > 20 µg/mL; in assay [8] it was 10 µg/mL; in assay [9], > 20 µg/mL; in [10], 20 µg/mL; in assay [11] it was 20 µg/mL; in [12] it was 20 µg/mL. Moreover, in assay [13], the MEC was > 20 µg/mL.

As to `O=C(O)c1c(F)ccc2c1OB(O)CC2`, the MEC in [1] is 0.6 µg/mL; in [4], 0.16 µg/mL; in assay [5] it was 0.16 µg/mL; in assay [6], 0.6 µg/mL; in assay [7], 5 µg/mL; in assay [8], 0.6 µg/mL. In addition, the MEC was > 20 µg/mL in [9]; 0.6 µg/mL in assay [10]; 0.08 µg/mL in assay [11]; 2.5 µg/mL in assay [12]; 2.5 µg/mL in assay [13].

`COc1ccc2c(c1C(=O)O)OB(O)CC21CC1`: the MEC was determined as 2.5 µg/mL in assay [1]; 1.25 µg/mL in assay [2]; 5 µg/mL in [3]; 1.25 µg/mL in assay [4]; 2.5 µg/mL in assay [5]; 2.5 µg/mL in [6]. Moreover, the MEC was 20 µg/mL in assay [7]; 10 µg/mL in assay [8]; > 20 µg/mL in assay [9]; 1.25 µg/mL in assay [10]; 5 µg/mL in [11]; 1.25 µg/mL in assay [12]. Further, the MEC in [13] turned out to be 2.5 µg/mL.

Turning to `O=C(O)c1cccc2c1OB(O)CC2`, the MEC in [1] came out at 20 µg/mL; in assay [4], 0.6 µg/mL; in assay [5], 5 µg/mL; in assay [6] it was 1.25 µg/mL; in [7], 10 µg/mL; in assay [8], 0.6 µg/mL. Also, the MEC was > 20 µg/mL in assay [9]; 20 µg/mL in assay [10]; 10 µg/mL in [11]; > 20 µg/mL in [12]; 20 µg/mL in assay [13].

Regarding `O=C(O)c1c(OCCF)ccc2c1OB(O)[C@@H](Sc1nncs1)C2`, the MEC in [1] is 20 µg/mL; in [2] it was 5 µg/mL; in [3], 20 µg/mL; in [4], 5 µg/mL; in assay [5] it was > 20 µg/mL; in [6], 0.6 µg/mL. Besides, the MEC in assay [7] was 0.16 µg/mL; in assay [8] it was 20 µg/mL; in assay [9] it was 2.5 µg/mL.
